Experimental data as given in US6436945B2, “Substituted O6-benzyl-8-aza-guanines” (The United States of America as represented by the of …, priority 1994, dated 2002).
Numbering of substitutions follows the chain as printed.

Legend:
[1] = molecular target: T1, O^6-alkylguanine-DNA alkyltransferase (AGT) (Homo sapiens, UniProt P16455); experiment: AGT inactivation in HT29 cell-free extract
T1 sequence (P16455 1-207): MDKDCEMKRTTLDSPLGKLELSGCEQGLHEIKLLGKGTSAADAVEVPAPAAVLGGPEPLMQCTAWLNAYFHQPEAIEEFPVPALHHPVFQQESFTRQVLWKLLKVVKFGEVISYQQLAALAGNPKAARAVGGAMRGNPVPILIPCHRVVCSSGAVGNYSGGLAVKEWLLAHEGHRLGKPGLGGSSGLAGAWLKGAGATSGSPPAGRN
Experimental: (§1) The data represent the dose of compound required to produce 50% inactivation in cell-free extracts upon incubation for 30 min or in cells upon incubation for 4 hr.

[2] = molecular target: T1, O^6-alkylguanine-DNA alkyltransferase (AGT); experiment: AGT inactivation in intact HT29 cells; details: for ratio of ED50 values in cell-free extracts/intact cells: HT29
Experimental: as §1

[3] = test system: MCF-71 breast cancer cells; experiment: Killing of MCF-71 breast cancer cells by BCNU combined with AGT inactivators (colony formation)
Experimental: (§2) Cells were treated for 2 h with AGT inactivator prior to exposure to BCNU.

HT-29 colon cancer cells = experiment: Killing of HT-29 colon cancer cells by BCNU combined with AGT inactivators (colony formation); details: for enhancement of BCNU cytotoxicity, in words: statement covers HT29, DU-145 and MCF-71 cells (Tables 3-5); for Colony Formation per 1000 cells: HT-29
Experimental: as §2

[4] = test system: DU-145 prostate cancer cells; experiment: Killing of DU-145 prostate cancer cells by BCNU combined with AGT inactivators (colony formation)
Experimental: as §2

alkyltransferase P140A = molecular target: T2, alkyltransferase P140A (Homo sapiens, UniProt P16455, P140A); experiment: Inhibition of mutant alkyltransferase proteins, P140A; assay type: biochemical
T2 construct: made in house
T2 sequence (P16455 1-207 P140A): T1 sequence (P16455 1-207) with P140A

Control alkyltransferase = molecular target: T3, Control alkyltransferase (Homo sapiens, UniProt P16455); experiment: Inhibition of alkyltransferase proteins, control protein; assay type: biochemical; details: concentration to inactivate 50% of the activity in 30 minutes, read-out: ED50 value
T3 sequence (P16455 1-207): T1 sequence (P16455 1-207)

alkyltransferase G156A = molecular target: T4, alkyltransferase G156A (Homo sapiens, UniProt P16455, G156A); experiment: Inhibition of mutant alkyltransferase proteins, G156A; assay type: biochemical
T4 construct: made in house
T4 sequence (P16455 1-207 G156A): T1 sequence (P16455 1-207) with G156A

[5] = molecular target: T5, alkyltransferase P138A/P140A (Homo sapiens, UniProt P16455, P138A/P140A); experiment: Inhibition of mutant alkyltransferase proteins, P138A/P140A; assay type: biochemical
T5 construct: made in house
T5 sequence (P16455 1-207 P138A/P140A): T1 sequence (P16455 1-207) with P138A, P140A

mutant alkyltransferase = experiment: Inactivation of mutant (resistant) alkyltransferase, overall statements; assay type: biochemical, human; details: intracellular concentration, extrapolated from Table 6
[6] = Behaviour in solution at pH 13 (noted with UV spectra); assay type: physicochemical
purified human AGT = molecular target: T6, purified human AGT (Homo sapiens, UniProt P16455); experiment: Inactivation of purified human AGT; assay type: biochemical; details: Table 2 footnotes; read-out: ED50 with purified human AGT
T6 sequence (P16455 1-207): T1 sequence (P16455 1-207)

[7] = molecular target: T1, O^6-alkylguanine-DNA alkyltransferase (AGT); design: endogenous in cells; host or cells: HT29 human colon tumor cells; details: text b35, comparison value of Table 1; cited from earlier work

SMILES: Nc1nc(OCc2ccccc2)c2nc(C(F)(F)F)[nH]c2n1 [Compound 1e, O^6-Benzyl-8-trifluoromethylguanine]
- melting point: 214 to 216 °C (dec.)
- EC50 [1]: 0.4 µM
- EC50 [2]: 0.25 µM
- ratio of ED50 values in cell-free extracts/intact cells [2]: 1.6

SMILES: Nc1nc(N)c(N)c(OCc2ccccc2)n1 [Compound 3c, 2,4,5-triamino-6-benzyloxypyrimidine]
- EC50 [1]: 0.4 µM
- Colony Formation per 1000 cells ([3]; inactivator 10 μM, BCNU 40 μM): 12 ± 4 per 1000 cells
- Colony Formation per 1000 cells ([3]; inactivator 10 μM, BCNU none): 448 ± 55 per 1000 cells
- enhancement of BCNU cytotoxicity, in words (HT-29 colon cancer cells; BCNU 40 μM): as effective as the 8-substituted O^6-bezylguanine derivatives and O^6-benzylguanine itself
- Colony Formation per 1000 cells (HT-29 colon cancer cells; inactivator 1 μM, BCNU 40 μM): 487 ± 32 per 1000 cells
- Colony Formation per 1000 cells (HT-29 colon cancer cells; inactivator 10 μM, BCNU 40 μM): 3 ± 1 per 1000 cells
- Colony Formation per 1000 cells (HT-29 colon cancer cells; inactivator 10 μM, BCNU none): 453 ± 59 per 1000 cells
- EC50 [2]: 0.3 µM
- Colony Formation per 1000 cells ([4]; inactivator 1 μM, BCNU 40 μM): 378 ± 60 per 1000 cells
- Colony Formation per 1000 cells ([4]; inactivator 10 μM, BCNU 40 μM): 57 ± 7 per 1000 cells
- Colony Formation per 1000 cells ([4]; inactivator 10 μM, BCNU none): 429 ± 101 per 1000 cells

SMILES: Nc1nc(N)c(N=O)c(OCc2ccccc2)n1 [Compound 3d, 2,4-diamino-6-benzyloxy-5-nitrosopyrimidine]
- EC50 (alkyltransferase P140A; P140A, concentration to inactivate 50% of the activity in 30 minutes, read-out: ED50 value): 0.1 µM
- EC50 (Control alkyltransferase): 0.05 µM
- EC50 (alkyltransferase G156A; G156A, concentration to inactivate 50% of the activity in 30 minutes, read-out: ED50 value): 1 µM
- EC50 [1]: 0.06 µM
- AGT inactivating activity in HT29 cell-free extracts, in words ([1]; comparison): the most active AGT inactivators tested to date
- Colony Formation per 1000 cells ([3]; inactivator […], BCNU 40 μM): 2 ± 1 per 1000 cells
- enhancement of BCNU cytotoxicity, in words (HT-29 colon cancer cells; BCNU 40 μM): similarly effective at a 4-fold lower dose
- Colony Formation per 1000 cells (HT-29 colon cancer cells; inactivator 1 μM, BCNU 40 μM): 19 ± 4 per 1000 cells
- Colony Formation per 1000 cells (HT-29 colon cancer cells; inactivator […], BCNU 40 μM): <1 per 1000 cells
- EC50 ([5]; P138A/P140A, concentration to inactivate 50% of the activity in 30 minutes, read-out: ED50 value): 0.3 µM
- EC50 [2]: 0.02 µM
- Colony Formation per 1000 cells ([4]; inactivator 1 μM, BCNU 40 μM): 25 ± 4 per 1000 cells
- concentration needed to be effective at inactivating resistant alkyltransferase (mutant alkyltransferase): greater than 5 μM

SMILES: Cn1c(C(F)(F)F)nc2c(OCc3ccccc3)nc(N)nc21 [Compound 7, O^6-Benzyl-8-trifluoromethyl-9-methylguanine]
- melting point: 86 to 89 °C
- EC50 [1]: 2.5 µM
- EC50 [2]: 0.4 µM
- ratio of ED50 values in cell-free extracts/intact cells [2]: 6.3
- AGT inactivating activity in intact HT29 cells, in words ([2]; comparison): significantly higher than their activity in cell-free extracts

SMILES: CC(C)(C)C(=O)OCn1nnc2c(OCc3ccccc3)nc(N)nc21 [Compound 8b, 8-Aza-O^6-benzyl-9-(pivaloyloxymethyl)guanine]
- stability at pH 13 [6]: decomposes to 8-aza-O^6-benzylguanine
- EC50 (purified human AGT): 4 µM
- melting point: 119 to 120 °C
- EC50 [1]: 0.28 µM
- EC50 [2]: 0.23 µM

SMILES: CC(C)(C)C(=O)OCn1nnc2nc(N)nc(OCc3ccccc3)c21 [Compound 9, 8-Aza-O^6-benzyl-7-(pivaloyloxymethyl)guanine]
- stability at pH 13 [6]: decomposes to 8-aza-O^6-benzylguanine
- EC50 (purified human AGT): 2 µM
- melting point: 153 to 154 °C
- EC50 [1]: 0.11 µM
- EC50 [2]: 0.16 µM

SMILES: CC(C)(C)C(=O)OCn1c(Br)nc2c(OCc3ccccc3)nc(N)nc21 [Compound 10b, O^6-Benzyl-8-bromo-9-(pivaloyloxymethyl)guanine]
- stability at pH 13 [6]: decomposes to O^6-benzyl-8-bromoguanine
- EC50 (purified human AGT): > 100 µM
- melting point: 217 to 218 °C
- EC50 [1]: 0.08 µM
- EC50 [2]: 0.05 µM

SMILES: CC(C)(C)C(=O)OCn1cnc2nc(N)nc(OCc3ccccc3)c21 [Compound 12, O^6-benzyl-7-(pivaloyloxymethyl)guanine]
- stability at pH 13 [6]: decomposes to O^6-benzylguanine
- EC50 (purified human AGT): > 100 µM
- EC50 [1]: 9 µM
- EC50 [2]: 0.3 µM

SMILES: Nc1nc(OCc2ccccc2)c2nc[nH]c2n1 [O^6-benzylguanine, reference compound]
- increase in resistance to inactivation (alkyltransferase P140A; P140A versus control protein): 20 fold
- ED50 value for inactivation of AGT in HT29 cell extracts [7]: 200 µM
- increase in resistance to inactivation (alkyltransferase G156A; G156A versus control protein): 240 fold
- Colony Formation per 1000 cells ([3]; inactivator 10 μM, BCNU 40 μM): 4 ± 2 per 1000 cells
- Colony Formation per 1000 cells ([3]; inactivator 10 μM, BCNU none): 455 ± 63 per 1000 cells
- Colony Formation per 1000 cells ([3]; inactivator […], BCNU 40 μM): 12 ± 6 per 1000 cells
- Colony Formation per 1000 cells (HT-29 colon cancer cells; inactivator 1 μM, BCNU 40 μM): 277 ± 25 per 1000 cells
- Colony Formation per 1000 cells (HT-29 colon cancer cells; inactivator 10 μM, BCNU 40 μM): 13 ± 6 per 1000 cells
- Colony Formation per 1000 cells (HT-29 colon cancer cells; inactivator 10 μM, BCNU none): 431 ± 33 per 1000 cells
- Colony Formation per 1000 cells (HT-29 colon cancer cells; inactivator […], BCNU 40 μM): 38 ± 15 per 1000 cells
- increase in resistance to inactivation ([5]; P138A/P140A versus control protein): 88 fold
- Colony Formation per 1000 cells ([4]; inactivator 1 μM, BCNU 40 μM): 299 ± 18 per 1000 cells
- Colony Formation per 1000 cells ([4]; inactivator 10 μM, BCNU 40 μM): 28 ± 5 per 1000 cells
- Colony Formation per 1000 cells ([4]; inactivator 10 μM, BCNU none): 462 ± 68 per 1000 cells
- concentration needed to be effective at inactivating resistant alkyltransferase (mutant alkyltransferase): greater than 200 μM
